Results on 30 compounds are retold here after PubChem BioAssay (NCI).

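How tested: cells in 96-well plates exposed to compound for 48 hours at five concentrations. Abbreviation: GI50, concentration required for 50% inhibition of growth. TGI denotes the concentration required for complete inhibition of growth.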 Bounds are passed on as bounds.

Holding throughout (experiment): NCI-60 cell line screen, 48 h
Assay [1] deals with MALME-3M melanoma.
Assay [2] concerns MOLT-4 leukemia.
The subject of assay [3] is RXF 393 renal.
Assay [4] has as its system TK-10 renal.
The test system of assay [5] is U251 CNS.
Assay [6] relates to SK-MEL-2 melanoma.

As to `c1ccc2c(OCC3CO3)ccc(OCC3CO3)c2c1` (centres undefined), the TGI in assay [1] is 20.5 µM; in assay [2], 2.99 µM; in assay [3], 7.71 µM; in assay [4] it was 26.7 µM; in assay [5], 6.32 µM.

On to `COc1ccc(OC)c2c(=O)cc(-c3ccccc3)[nH]c12`, for which the TGI in assay [1], in assay [2], in assay [3], in assay [6], in assay [4] and in assay [5] was > 100 µM in each case.

Consider `CC(=O)NNc1nc(C)c(C(/C=C/c2ccccc2O)=N/NC(=O)c2ccncc2)s1`, for which the TGI in assay [1], in assay [2], in assay [3], in assay [6], in assay [4] and in assay [5] was > 100 µM throughout.

Consider `C=C(CO)[C@H]1CC/C(C)=C/CC/C(C)=C/C/C=C(\C)[C@H](O)C1`, for which the TGI in assay [2] is 44.2 µM; in assay [3] it was 42.1 µM; in assay [6] it was 51.5 µM; in assay [4], 47.7 µM; in assay [5] it was 36 µM.

As for `CC1=CC[C@@]2(C)[C@@H]([C@@H]1C)[C@H]1CC[C@@H]3[C@@]4(C)CC[C@H](O)C(C)(C)[C@@H]4CC[C@@]3(C)[C@]1(C)C[C@@H]2O`, the TGI in assay [1] is > 68.7 µM; in assay [2], > 70.4 µM; in assay [3] it was 28.5 µM; in assay [6], > 59 µM; in assay [4], > 70.7 µM; in assay [5], 23.1 µM.

In the case of `CCOC(=O)C(NC(=O)NCc1ccc(F)cc1)C(F)(F)F` (centres undefined), the TGI in assay [3], in assay [6], in assay [4] and in assay [5] was > 100 µM in each case.

With `CCCN(CCC)C(=S)N/N=C/c1cccc(C)n1`, the TGI in assay [1] was 14.9 µM; in assay [2] it was 0.588 µM; in assay [3], 0.637 µM; in assay [6], 26.4 µM; in assay [4] it was 0.832 µM; in assay [5], > 100 µM.

Consider `COc1cc(/C=C2\CCC(C)c3c2nc(N)c(C#N)c3-c2cc(OC)c(OC)c(OC)c2)cc(OC)c1OC` (centres undefined), for which the TGI in assay [2], in assay [3], in assay [6], in assay [4] and in assay [5] was > 100 µM each time.

As for `CC1=C(C#N)C(=O)N(/N=C/c2ccc(Cl)cc2)C(=O)/C1=c1\o/c(=C2/C(=O)N(/N=C/c3ccc(Cl)cc3)C(=O)C(C#N)=C2C)c2nccnc12`, the TGI in assay [1], in assay [2], in assay [3], in assay [6] and in assay [5] was > 100 µM throughout.

For the compound `COc1ccc2c(c1)-c1c(c3ccccc3n1CCN1CCCCC1)CC2`, the TGI in assay [1] is 39.3 µM; in assay [2] it was 47.4 µM; in assay [3] it was > 100 µM; in assay [6] it was 16.7 µM; in assay [4], 54.6 µM; in assay [5], 56.7 µM.

Consider `[N-]=[N+]=Nc1cc(=O)n(-c2ccccc2)c(=O)n1-c1ccccc1`, for which the TGI in assay [1], in assay [2], in assay [3], in assay [6], in assay [4] and in assay [5] was > 100 µM in each case.

`CCOC(=O)Cc1nc2nn(Cc3ccccc3)cc2c(=O)[nH]1`: the TGI in assay [1], in assay [2], in assay [3], in assay [4] and in assay [5] was > 100 µM throughout.

As for `CSC1=N/C(=C\c2ccc(Cl)cc2)C(=O)N1CN1CCOCC1`, the TGI in assay [1], in assay [2], in assay [6], in assay [4] and in assay [5] was > 100 µM each time.

`Cc1nn(-c2ccccc2)c2nc3c(c(C)nn3-c3ccccc3)c(-c3ccccc3Br)c12`: the TGI in assay [1], in assay [2], in assay [3], in assay [4] and in assay [5] was > 100 µM throughout.

On to `O=C(/C=C/c1c(O)c2ccccc2[nH]c1=O)CC(=O)C(=O)Nc1cccc(O)c1`, for which the TGI in assay [1], in assay [2], in assay [6], in assay [4] and in assay [5] was > 100 µM throughout.

Consider `Cc1ccc2nc(CN3CCCCC3)cc(=O)n2c1`, for which the TGI in assay [1], in assay [2], in assay [6], in assay [4] and in assay [5] was > 100 µM in each case.

For the compound `Cc1nc2c(n1CCCl)C(=O)c1ccccc1C2=O`, the TGI in assay [1] came out at 19.2 µM; in assay [2], 78 µM; in assay [3], 46.2 µM; in assay [4] it was 78.5 µM; in assay [5], 62.4 µM.

Consider `O=S(=O)([N-]c1nc2ccccc2nc1-[n+]1ccccc1)c1ccccc1`, for which the TGI was > 100 µM in assay [1]; 95.4 µM in assay [2]; > 100 µM in assay [3]; > 100 µM in assay [6]; > 100 µM in assay [4].

For the compound `Cn1c(=S)[nH]c2c(Cl)cc(Cl)cc2c1=O`, the TGI in assay [2], in assay [3], in assay [6], in assay [4] and in assay [5] was > 100 µM throughout.

As for `CN(C)Cc1cc(C(=O)/C=C/c2c(Cl)cccc2Cl)cc(CN(C)C)c1O`, the TGI in assay [1] worked out at 15.7 µM; in assay [2], 30.3 µM; in assay [3] it was 18.6 µM; in assay [4], 27.8 µM; in assay [5] it was 23.4 µM.

As to `O=c1c2cc([N+](=O)[O-])cnc2sn1-c1ccc(Oc2ccccc2)cc1`, the TGI in assay [1] is 74.9 µM; in assay [2], > 100 µM; in assay [6] it was > 100 µM; in assay [4] it was > 100 µM; in assay [5], > 100 µM.

In the case of `CC(C)CC(NC(=O)OCc1ccccc1)C(=O)NCCCCC(N)C(=O)NC(CCCCNC(=O)C(CC(C)C)NC(=O)OCc1ccccc1)C(=O)NC(CCCCNC(=O)C(CC(C)C)NC(=O)OCc1ccccc1)C(=O)NC(CCCCNC(=O)C(CC(C)C)NC(=O)OCc1ccccc1)C(=O)NC(CCCCNC(=O)C(CC(C)C)NC(=O)OCc1ccccc1)C(=O)NC(CCCCNC(=O)C(CC(C)C)NC(=O)OCc1ccccc1)C(=O)O` (centres undefined), the TGI in assay [1], in assay [2], in assay [6], in assay [4] and in assay [5] was > 100 µM in each case.

As for `COC(=O)c1cccc(C)c1C1CN=NC12Cc1c(ccc(C)c1C)C2=O` (centres undefined), the TGI in assay [1] is 78.1 µM; in assay [2], 86.7 µM; in assay [3], 92.4 µM; in assay [4] it was > 100 µM; in assay [5], > 100 µM.

On to `CC1=C(C(=O)OC23CC4CC(CC(C4)C2)C3)C(c2ccccc2OC(F)F)C(C(=O)OC23CC4CC(CC(C4)C2)C3)=C(C)N1` (centres undefined), for which the TGI in assay [1], in assay [2], in assay [3], in assay [6] and in assay [5] was > 100 µM in each case.

In the case of `C=CCN1C(=O)N/C(=C\c2ccc(Cl)cc2)C1=O`, the TGI in assay [1], in assay [2], in assay [3], in assay [4] and in assay [5] was > 100 µM each time.

Turning to `CC(=O)/C(=C/N1C(=O)CC(=O)NC1=S)C(=O)Nc1ccccc1C`, the TGI in assay [2], in assay [3], in assay [6], in assay [4] and in assay [5] was > 100 µM in each case.

On to `CO[C@H]1C[C@@H]2CC[C@@H](C)[C@@](O)(O2)C(=O)C(=O)N2CCCC[C@H]2C(=O)O[C@H]([C@H](C)C[C@@H]2CC[C@@H](OC(=O)C(C)(CO)CO)[C@H](OC)C2)CC(=O)[C@H](C)/C=C(\C)[C@@H](O)[C@@H](OC)C(=O)[C@H](C)C[C@H](C)/C=C/C=C/C=C/1C`, for which the TGI in assay [2] was > 100 µM; in assay [3] it was 21.9 µM; in assay [6] it was > 55.1 µM; in assay [5], > 47.4 µM. In addition, in assay [4], the GI50 was 0.359 µM.

On to `CC1(C)C[C@H]2C3=CC[C@@H]4[C@@]5(C)CC[C@H](O)C(C)(C)[C@@H]5CC[C@@]4(C)[C@]3(C)C[C@@H](O)[C@@]23C[C@@H]1OC3=O`, for which the TGI in assay [1], in assay [2], in assay [6], in assay [4] and in assay [5] was > 100 µM throughout.

As for `CCOC(=O)C1C(C(C)C)C2(C#N)C(=N)OC1(C)C2(C#N)C#N` (centres undefined), the TGI in assay [1], in assay [3], in assay [6], in assay [4] and in assay [5] was > 100 µM each time.

With `CC/C(=C/OC)P1(=O)OC(C)(C)CN1C(C)(C)C` (centres undefined), the TGI in assay [1], in assay [6], in assay [4] and in assay [5] was > 100 µM each time.
